Tests used:
[1] = tested on: Annual bluegrass; assay: Herbicidal activity at different growth stages, fresh weight suppression; assay type: in vivo; conditions: for Suppression ratio relative to the biomass of the untreated group: Annual bluegrass 1 leaf / Suppression ratio relative to the biomass of the untreated group: Annual bluegrass 2 leaf / Suppression ratio relative to the biomass of the untreated group: Annual bluegrass 3 leaf / Suppression ratio relative to the biomass of the untreated group: Annual bluegrass 4 leaf / Suppression ratio relative to the biomass of the untreated group: Annual bluegrass PRE: fresh weight two weeks after treatment
Method: To a cup pot having a surface area of 100 cm^2 wherein mixed soils including blend bed soil (Boonong, Horticultural Bed Soil No. 3) and sandy loam soil were filled (mixing ratio, 1:1), seeds of large crabgrass and annual bluegrass were sown consecutively at an one week interval. The pots were moistened by sub-irrigation, and kept in a greenhouse maintained at 25˜30° C. (day) or 15˜25° C. (night). The said weeds were grown to various growth stages from pre-emergence to the four-leaf stage. […] Spray volume was adjusted to 2,000 L/ha. The method to spray of the test substance and prepare spray solutions were the same as described above. The reference herbicide was used after it was diluted with 0.2% (v/v) Tween 20 aqueous solution. The test was conducted in a randomized block design with three replicates. Two weeks after the treatment, plant parts remained above the pot soil surface were cut and the fresh weight was weighed. Results are given by a suppression ratio relative to the biomass that was obtained from the untreated group (see, Table 3).

[2] = tested on: Cotton; assay: Upland pot test, pre-/post-emergence spray, visual rating; assay type: in vivo, cotton (GOSHI); conditions: for Visual measurement: Crops, Cotton: 2 weeks after spray, 0-10 scale (10=completely killed)
From the text: (§1) To a rectangular plastic pot having a surface area of 300 cm^2, mixed soils including blend bed soil (Boonong, Horticultural Bed Soil No. 3) and sandy loam soil were filled (mixing ratio, 1:1). Seeds of the eight different types of weeds including gramineous weed such as barnyardgrass, large crabgrass, green foxtail, fall panicum, and broadleaf weed such as common cocklebur, velvetleaf, Indian joint-vetch, and morningglory were sown. To the other pot containing the same soil mixture, seeds of the five different types of crops including corn, soybean, cotton, wheat and rice were sown. Pots were kept in a greenhouse of which temperature was maintained at 25˜30° C. (day) or 15˜25° C. (night), and regularly watered.
(§2) After fourteen days and when the crops and the weeds reached their three-leaf stage, the other set of a crop pot and a weed pot were prepared by the same method as described above. Then, “test substance” was sprayed thereto. In this case, spray treatment to the plants after they have grown for two weeks corresponded to post-emergence treatment while spray treatment to the seeds right after the sowing corresponded to pre-emergence treatment. Spray was carried out by using a track sprayer (R&D Sprayer, USA) equipped with a Teejet 8002 nozzle (Spraying Systems Co., USA). Spray volume was adjusted to 300 L/ha. The spray solution was prepared by dissolving the “test substance” in acetone and adding the same volume of 0.2% (v/v) Tween 20 aqueous solution. Dosage of the test substance was 500, 250, 125, 62.5 or 31.3 g/ha. Two weeks after the spray of the test substance, efficacy and phytotoxic effect to the crops and the weeds were visually measured based on a 0 to 10 scale (0: no efficacy, 10: completely killed).

[3] = tested on: Morningglory; assay: as above; assay type: in vivo, morningglory (IPOSP); conditions: 2 weeks after spray, 0-10 scale (10=completely killed)
From the text: as §1, §2

[4] = post-emergence foliar spray at three leaf stage, 31.2 g/ha
[5] = post-emergence foliar spray at three leaf stage, 62.5 g/ha
[6] = post-emergence foliar spray at three leaf stage, 125 g/ha
[7] = post-emergence foliar spray at three leaf stage, 250 g/ha
[8] = post-emergence foliar spray at three leaf stage, 500 g/ha
[9] = pre-emergence soil treatment, 31.2 g/ha
[10] = pre-emergence soil treatment, 62.5 g/ha
[11] = pre-emergence soil treatment, 125 g/ha
[12] = pre-emergence soil treatment, 250 g/ha
[13] = pre-emergence soil treatment, 500 g/ha

## Cc1ccsc1C1=NOC(C)(COCc2c(F)cccc2F)C1 (stereo not drawn) [test substance, 5-(2,6-difluorobenzyl)oxymethyl-5-methyl-3-(4-methylthiophen-5-yl)-1,2-isoxazoline]
[1]; 1 kg/ha
  Suppression ratio relative to the biomass of the untreated group: Annual bluegrass 1 leaf: 97%
  Suppression ratio relative to the biomass of the untreated group: Annual bluegrass 2 leaf: 93%
  Suppression ratio relative to the biomass of the untreated group: Annual bluegrass 3 leaf: 66%
  Suppression ratio relative to the biomass of the untreated group: Annual bluegrass 4 leaf: 55%
  Suppression ratio relative to the biomass of the untreated group: Annual bluegrass PRE: 100%
[1]; 2 kg/ha
  Suppression ratio relative to the biomass of the untreated group: Annual bluegrass 1 leaf: 99%
  Suppression ratio relative to the biomass of the untreated group: Annual bluegrass 2 leaf: 95%
  Suppression ratio relative to the biomass of the untreated group: Annual bluegrass 3 leaf: 69%
  Suppression ratio relative to the biomass of the untreated group: Annual bluegrass 4 leaf: 60%
  Suppression ratio relative to the biomass of the untreated group: Annual bluegrass PRE: 100%
[1]; .12 kg/ha
  Suppression ratio relative to the biomass of the untreated group: Annual bluegrass 1 leaf: 37%
  Suppression ratio relative to the biomass of the untreated group: Annual bluegrass 2 leaf: 35%
  Suppression ratio relative to the biomass of the untreated group: Annual bluegrass 3 leaf: 0%
  Suppression ratio relative to the biomass of the untreated group: Annual bluegrass 4 leaf: 0%
  Suppression ratio relative to the biomass of the untreated group: Annual bluegrass PRE: 95%
[1]; .25 kg/ha
  Suppression ratio relative to the biomass of the untreated group: Annual bluegrass 1 leaf: 95%
  Suppression ratio relative to the biomass of the untreated group: Annual bluegrass 2 leaf: 82%
  Suppression ratio relative to the biomass of the untreated group: Annual bluegrass 3 leaf: 18%
  Suppression ratio relative to the biomass of the untreated group: Annual bluegrass 4 leaf: 2%
  Suppression ratio relative to the biomass of the untreated group: Annual bluegrass PRE: 100%
[1]; .5 kg/ha
  Suppression ratio relative to the biomass of the untreated group: Annual bluegrass 1 leaf: 96%
  Suppression ratio relative to the biomass of the untreated group: Annual bluegrass 2 leaf: 90%
  Suppression ratio relative to the biomass of the untreated group: Annual bluegrass 3 leaf: 61%
  Suppression ratio relative to the biomass of the untreated group: Annual bluegrass 4 leaf: 37%
  Suppression ratio relative to the biomass of the untreated group: Annual bluegrass PRE: 100%
[1]; PRE to 2-leaf stage, 0.5 kg/ha or above
  Suppression of annual bluegrass: ≥ 90%
[1]; over three-leaf stage
  Control of annual bluegrass (in words): suppressed but were not completely controlled
[2]; [4]
  Visual measurement: Crops, Cotton: 0
[2]; [5]
  Visual measurement: Crops, Cotton: 0
[2]; [6]
  Visual measurement: Crops, Cotton: 0
[2]; [7]
  Visual measurement: Crops, Cotton: 0
[2]; [8]
  Visual measurement: Crops, Cotton: 0
[2]; post-emergence treatment
  Safety to cotton (in words): safe
[2]; [9]
  Visual measurement: Crops, Cotton: 0
[2]; [10]
  Visual measurement: Crops, Cotton: 0
[2]; [11]
  Visual measurement: Crops, Cotton: 0
[2]; [12]
  Visual measurement: Crops, Cotton: 0
[2]; [13]
  Visual measurement: Crops, Cotton: 0
[3]; [4]
  Visual measurement: Broadleaf weed, Morningglory: 0
[3]; [5]
  Visual measurement: Broadleaf weed, Morningglory: 0
[3]; [6]
  Visual measurement: Broadleaf weed, Morningglory: 0
[3]; [7]
  Visual measurement: Broadleaf weed, Morningglory: 1
[3]; [8]
  Visual measurement: Broadleaf weed, Morningglory: 3
[3]; [9]
  Visual measurement: Broadleaf weed, Morningglory: 0
[3]; [10]
  Visual measurement: Broadleaf weed, Morningglory: 0
[3]; [11]
  Visual measurement: Broadleaf weed, Morningglory: 1
[3]; [12]
  Visual measurement: Broadleaf weed, Morningglory: 2
[3]; [13]
  Visual measurement: Broadleaf weed, Morningglory: 2
